Experimental data from patent US8686224B2, “Plant defense signal peptides” (priority 2005, dated 2014).
“Also recorded” adds a separate entry of the source.

Assays:
[1] = system: wild type tobacco suspension-cultured cells; test: Medium alkalinization of wild type and GUS expressing tobacco cells; format: cell-based; settings: wild type tobacco (b358 also GUS expressing) cells
[2] = system: AtproPep1, MPK3 and WRKY gene expression; test: Marker gene induction in two-week-old seedlings grown in liquid medium (RT-PCR, qRT-PCR); format: in vivo, Arabidopsis thaliana
Experimental: Using AtproPep1 and MPK3 as marker genes, the response to AtPep1 of the T-DNA insertional mutants was analyzed. […] […]1 and […]2 mutants are unable to respond to AtPEP1. To further examine the importance of […]1 and […]2 in AtPep1 signaling, the expression level of WRKY transcription factor genes, WRKY22, WRKY29, WRKY33. WRKY53 and WRKY55, were monitored by qRT-PCR after supplying AtPep1 to wild type Arabidopsis and T-DNA insertional mutants of […]1 and […]2. These WRKY genes were reported to be induced by the fungal PAMP, chitin (Wan et al., Plant Cell 20: 471-481, 2008), and the bacterial PAMPs, […] et al., Cell 125:749-760, 2006). […] In the double mutants, […] […] We also examined the effect of supplying AtPep1 to the double mutants on the expression of the antimicrobial protein genes, defensin (PDF1.2) and pathogenesis related protein (PR-1) […] peptides are known to induced these genes (Huffaker and Ryan, Proc. Natl. Acad. Sci. USA 104: 10732-10736, 2007). Since the expression levels of PDF1.2 and PR-1 gene in Arabidopsis seedlings grown in liquid medium were already high, the method of supplying AtPep1 was changed. Four-week-old Arabidopsis plants grown in soil were sprayed with 1 μM AtPep1 in 0.01% Silwet L-77, and subjected to qRT-PCR analysis after 6 hours.

[3] = system: P. syringae pv. tomato DC3000 (Pst DC3000); test: Pst DC3000 inoculation of Arabidopsis leaves with peptide pre-infiltration; format: in vivo, Pseudomonas syringae
Excerpt: The resistance to P. irregulare requires the JA signaling pathway in Arabidopsis (Staswick et al, Plant J. 15: 747-754, 1998), and AtPep peptides induced PDF1.2, a marker gene for the JA response (Huffaker et al., Proc. Natl. Acad. Sci. USA 103: 10098-10103, Huffaker and Ryan, Proc. Natl. Acad. Sci. USA 104: 10732-10736, 2007). […] In order to examine this possibility, Arabidopsis plants were inoculated with P. syringae pv. tomato DC3000 (Pst DC3000) with or without AtPep1 pre-infiltration. Pst DC3000 was extracted from the infected leaves 4 days after infection and colony forming units (cfu/cm^2) were calculated. […] The reduction of Pst DC3000 growth was also not observed when the double mutant, pepr1-1/pepr2-1, was pre-infiltrated with AtPep1. […] Pre-infiltration of AtPep2-6 also attenuated Pst DC3000 growth to different degrees.
To assess the importance of AtPEPR1 and AtPEPR2 in the resistance to Pst DC3000 after infiltration of AtPep1, T-DNA insertional mutants were inoculated. When 1 μM AtPep1 was infiltrated into leaves one day prior to Pst DC3000 inoculation, the size of the necrotic regions were reduced in both wild type and single mutant lines, pepr1-1 and pepr2-1. […] Similar results were obtained when another set of mutant lines, pepr1-2, pepr2-2 and pepr1-2/pepr2-2, was used.

[4] = 1 μM one day prior, pepr1-1/pepr2-1

H-ATKVKAKQRGKEKVSSGRPGQHN-OH [AtPep1]
alkalinization of the medium [1]: no alkalinization was detected; also recorded: did not respond | response (AtproPep1, MPK3) in double mutants of AtPEPR1 and AtPEPR2 ([2]; 10 nM for 30 min): completely lost the response | response (AtproPep1, MPK3) in AtPEPR2 mutants ([2]; 10 nM for 30 min, SALK_036564 and SALK_004447): did not show the clear reduction | reduction of AtproPep1 and MPK3 induction in AtPEPR1 mutants ([2]; 10 nM for 30 min, SALK_059281 and SALK_014538): > 50% | WRKY responses in double mutants pepr1-1/pepr2-1 and pepr1-2/pepr2-2 ([2]; 10 nM, 30 min): completely abolished | lower induction of WRKY genes in pepr1-1 and pepr1-2 ([2]; 10 nM, 30 min): 50% | induction of WRKY33, WRKY53, WRKY22, WRKY29 and WRKY55 ([2]; 10 nM, 30 min, wild type): highly induced | bacterial growth reduced to ([3]; 1 μM infiltrated one day prior to inoculation, wild type): 1/100 | bacterial growth reduced to ([3]; 1 μM one day prior, pepr1-1): 1/25 | colony growth in the double mutants [3, 4]: no decrease in colony growth | symptom development in double mutants [3, 4]: did not affect symptom development | bacterial growth reduced to ([3]; 1 μM one day prior, pepr2-1): 1/100 | size of the necrotic regions ([3]; 1 μM one day prior, wild type and single mutants pepr1-1 and pepr2-1): reduced | Pst DC3000 growth in double mutant pepr1-1/pepr2-1 ([3]; pre-infiltration): not observed | attenuation of Pst DC3000 in fad3,7,8, npr1-1 and sid2-2 mutants ([3]; pre-infiltration): differentially diminished | effect on Pst DC3000 growth compared with flg22 pre-infiltration ([3]; pre-infiltration, wild type): more effective than flg22 pre-infiltration | Pst DC3000 growth in leaves after pre-infiltration ([3]; wild type, cfu/cm^2 4 days after infection, AtPep1 10 nM solution): reduced Pst DC3000 growth in leaves
